# Measured values reported in patent US20240228558A9, “PEPTIDES AND METHODS FOR THE TREATMENT OF NEUROMYELITIS OPTICA” (IMCYSE SA, priority 2021, published 2024).
# Key:
# [1] = system: autologous LCL (lymphoblastoid cell lines) used as antigen presenting cells; assay: Cytolytic activity: apoptosis of peptide-loaded autologous LCL co-cultured with peptide specific CD4+ T cells (Annexin V); assay type: cell-based, human
# Text: (§1) PBMCs are isolated from blood samples of patients with NMO on Lymphoprep density gradients. CD14+ monocytes are isolated from these PBMCs by performing positive immunomagnetic separation with CD14 microbeads (Miltenyi Biotec, 130-050-201) according to the supplier recommendations. CD14+ monocytes are differentiated for six days and maturated to generate autologous dendritic cells (mDC). CD19+ B cells are isolated from the CD14− PBMCs fraction by performing positive immunomagnetic separation with CD19 microbeads (Miltenyi Biotec, 130-050-301) according to the supplier recommendations. CD19+B cells are cultured and immortalized with EBV to generate autologous lymphoblastoid cell lines (LCL). Naïve CD4+ T cells are also purified from the CD14− PBMCs fraction by performing negative immunomagnetic separation with naïve CD4+ T cell isolation kit (Miltenyi Biotec, 130-094-131) according to the supplier recommendations. Naïve CD4+ T cells are co-cultured with autologous mDC or LCL in the presence of the peptides of table 1. The CD4+ T cells are re-stimulated periodically, about every 10-12 days, to generate peptide-specific cell lines.
# The cytolytic activity of the peptide specific CD4+ T cells is evaluated by quantifying the apoptosis induced on LCL used as antigen presenting cells. Fluorescently labelled autologous LCL, loaded or not with the peptides, were overnight co-cultured at resting state with peptide specific CD4+ T cells, and LCL apoptosis was quantified by flow cytometry through Annexin V staining. Considering the apoptosis percentage of unloaded LCL, used as control, the percentage of specific apoptosis is calculated as follows: […]
# [2] = system: peptide-specific CD4+ T cell lines of NMO patients; assay: Lytic marker Granzyme B in supernatant of overnight co-culture with autologous LCL; assay type: cell-based, human
# Text: as §1
# (§2) LCL without (no peptide) or with the peptides of table 1. The expression of the lytic marker Granzyme B is also evaluated by flow cytometry analysis in the supernatant of overnight co-culture with autologous LCL without (no peptide) or with the peptides of table 1. Supernatants are analyzed with a BioLegend kit according to the supplier recommendations.
# [3] = system: peptide-specific CD4+ T cell lines of NMO patients; assay: Cytokine secretion in CD4+ T cell culture supernatants (LEGENDplex Human Th Panel); assay type: cell-based
# Text: as §1
# The ability of the peptides of table 1 to induce cytokines secretion in CD4+ T cells culture supernatants is evaluated by flow cytometry analysis after overnight co-culture at resting state with autologous mDC or LCL without (no peptide) or with the peptides of table 1. Supernatants are analyzed with the LEGENDplex Human Th Panel (13-plex) (BioLegend, 740721) according to the supplier recommendations.
# [4] = system: peptide-specific CD4+ T cell lines of NMO patients; assay: Flow cytometry of TCR induced surface activation marker CD154 after overnight co-culture with autologous LCL; assay type: cell-based, human
# Text: as §1
# The evaluation of the ability of the peptides of table 1 to generate peptide specific CD4+ T cells is evaluated by flow cytometry analysis of the TCR induced surface activation marker CD154 expression after overnight co-culture at resting state with autologous
# as §2
# [5] = target: T1, soluble HLA-DRB1*03:01 (DR3) human MHC II protein (Homo sapiens, UniProt P01903+P01911, A100K/A102G/A103R/A169T/F55Y/I96L/K41T/L162R/M171V/P40S/Q125H/Q178H/Q39Y/R42S/S66N/T106N/T262R/W38E/Y61H); assay: Soluble phase competition binding assay to MHCII with biotin-labelled control peptide; settings: competition with biotin-labelled high affinity control peptide, 18h, triplicates (FIGS. 2A-2E)
# T1 construct: purchased Benaroya Research Institute, Seattle, US
# Protocol: To test the binding of the immunogenic peptides of table 1 to MHCII molecules, a soluble phase competition assay is performed. The increasing concentrations of the peptides compete with biotin-labelled control peptide (high affinity binder of the corresponding MHCII molecule, Eurogentec, Seraing, Belgium) for binding to the soluble HLA-DRB1*03:01 (also named DR3) human MHC II protein (purchased from the Benaroya Research Institute, Seattle, US). As binding approaches its equilibrium (18h), biotin-labelled peptide/MHC II complexes are captured, separated from unbound reagents, and quantitatively detected by time-resolved fluorescence (Eu^3+ streptavidin, Perkin Elmer, Brussels, Belgium). Since the biotinylated control peptide is responsible for the fluorescence signal (Eu^3+ streptavidin/biotin interaction), the decrease in fluorescence intensity reflects the binding of tested peptides. Data are processed and plotted to ascertain dose-dependent binding properties of the peptides. All the tests are performed in triplicates.
# [6] = Oxidoreductase activity of the immunogenic peptides, fluorescent assay (Tomazzolli et al.); assay type: biochemical; settings: for time at which oxidoreductase activity reached a plateau: FIG. 1A; for oxidoreductase activity: reduction of self-quenched FITC peptides, mean of duplicates, read in RFU (FIGS. 1A-1E)
# Text: The peptides of the invention comprise an MHC class II T-cell epitope or NKT cell epitope of AQP4 with a potential to trigger an immune reaction, and a modified oxidoreductase motif. The reducing activity of the motif sequence in the peptide can be assayed for its ability to reduce a sulfhydryl group such as in the insulin solubility assay wherein the solubility of insulin is altered upon reduction, or with a fluorescence-labelled substrate such as insulin. An example of such assay uses a fluorescent peptide and is described in Tomazzolli et al. (2006) Anal. Biochem. 350, 105-112. Two peptides with a FITC label become self-quenching when they covalently attached to each other via a disulfide bridge. Upon reduction by a peptide in accordance with the present invention, the reduced individual peptides become fluorescent again.
# The oxidoreductase activity of the immunogenic peptides of table 1 was determined using a fluorescent assay described in Tomazzolli et al. (2006) Anal. Biochem. 350, 105-112. Two peptides with a FITC label become self-quenching when they form a covalent disulfide bond. Upon reduction by a peptide in accordance with the present invention, the reduced individual FITC labelled peptides emit fluorescence again. The activity is expressed as the mean of duplicates. The results are expressed in Relative Fluorescent Units (RFU).
# [7] = P20-specific CD4+ T cell lines NMO-001, NMO-003, NMO-006 (FIGS. 8 and 9)
# [8] = culture supernatant of P20-CD4+ cell line from patient NMO-006 (FIG. 5)
# [9] = P20-specific CD4+ T cell line, patient NMO-001, after 14 stimulations (FIG. 6)
# [10] = P12-specific CD4+ T cell line, patient NMO-001 (FIG. 13)
# [11] = P12-specific CD4+ T cell line NMO-001 (FIG. 14)
sequence,measurement,setting,value
"AGGLYEYVFCPDVEFKRRFK [short C-WT T-cell epitope, reference compound]",cross-reactivity (LCL apoptosis),[1]; CD4+ T cells of patient NMO-001 after 16 stimulations with P20 (FIG. 7),lower
same,effector cells expressing the lytic marker Granzyme B,[2]; [7],specific increase of effector cells expressing the lytic marker Granzyme B
same,specific secretion of cytokines (IL-5 and IL-13),[3]; [8],specific secretion of cytokines (IL-5 and IL-13) induced
"AGGLYEYVFSPDVEFKRRFK [short-S-WT epitope, reference compound]",reactivation of P20-specific CD4+ T cells (CD154+),[4]; P20-specific CD4+ T cells of NMO-001 patient (FIG. 4),could also be reactivated
same,percentage of specific LCL apoptosis,[1]; [9],increase in the percentage of specific LCL apoptosis
same,effector cells expressing the lytic marker Granzyme B,[2]; [7],specific increase of effector cells expressing the lytic marker Granzyme B
HCPYCAVTVAMVCTRKISIAKK [P6],binding to HLA-DRB1*03:01,[5],less affinity than P12 and P20
HCPYCEYVFSPDVEFKRRFK [P20],binding to HLA-DRB1*03:01,[5],bind to HLA-DRB1*03:01 with similar affinity
same,frequency of effector cells (CD3+CD4+CD154+),[4]; P20-specific CD4+ T cell lines of NMO patients -001 and -003 after multiple stimulations (FIG. 3),high frequency of effector cells
same,percentage of specific LCL apoptosis,[1]; [9],increase in the percentage of specific LCL apoptosis
same,apoptosis of loaded LCL,"[1]; P20-specific CD4+ T cell line, patient NMO-003, after 14 stimulations (FIG. 6)",Apoptosis of LCL loaded with P20 was also observed
same,LCL apoptosis,[1]; co-culture with CD4+ T cells of patient NMO-001 after 16 stimulations with P20 (FIG. 7),50%
same,time at which oxidoreductase activity reached a plateau,[6],5 min
same,effector cells expressing the lytic marker Granzyme B,[2]; [7],specific increase of effector cells expressing the lytic marker Granzyme B
same,specific secretion of cytokines (IL-5 and IL-13),[3]; [8],specific secretion of cytokines (IL-5 and IL-13) induced
HCPYCRENIMVAFKGVWTQAK [P1],binding to HLA-DRB1*03:01,[5],less affinity than P12 and P20
HCPYCRSQVETDDLILKPGVK [P22],oxidoreductase activity,[6],"displayed oxidoreductase activity, although to a lesser extend"
HCPYCTRKISIAKSVFYIAAKKK [P12],binding to HLA-DRB1*03:01,[5],bind to HLA-DRB1*03:01 with similar affinity
same,frequency of effector cells (CD3+CD4+CD154+),[4]; P12-specific CD4+ T cell lines of NMO patients -001 and -003 after multiple stimulations (FIG. 10),high frequency of effector cells
same,percentage of specific LCL apoptosis,[1]; [10],increase in the percentage of specific LCL apoptosis
same,time at which oxidoreductase activity reached a plateau,[6],5 min
same,effector cells expressing the lytic marker Granzyme B,[2]; [11],specific increase of effector cells expressing the lytic marker Granzyme B
same,specific secretion of cytokines (IL-5 and IL-13),"[3]; culture supernatant of P12-specific CD4+ cell lines (FIG. 12, NMO-003)",specific secretion of cytokines (IL-5 and IL-13) induced
HCPYCTVAMVSTRKISIAK [P3],binding to HLA-DRB1*03:01,[5],less affinity than P12 and P20
HCPYCVETIFASSDSKRTDVK (HCPYCVFTIFASSDSKRTDVK) [P15],binding to HLA-DRB1*03:01,[5],less affinity than P12 and P20
same,oxidoreductase activity,[6],"displayed oxidoreductase activity, although to a lesser extend"
KHCPYCVFTIFASCDSKRTDVK [P18],binding to HLA-DRB1*03:01,[5],less affinity than P12 and P20
"KVAMVCTRKISIAKSVFYIAAKK [short-WT epitope, reference compound]",reactivation of P12-specific CD4+ T cells (CD154+),[4]; P12-specific CD4+ T cells of NMO-001 patient (FIG. 11),could also be reactivated
same,percentage of specific LCL apoptosis,[1]; [10],increase in the percentage of specific LCL apoptosis
same,effector cells expressing the lytic marker Granzyme B,[2]; [11],specific increase of effector cells expressing the lytic marker Granzyme B
